The target in one assay is T1, full length mouse TREX1 (Mus musculus, UniProt Q91XB0).
T1 construct: N-terminally His-Tev tagged full length mouse TREX1; made in house; host or cells: E. coli
T1 sequence (Q91XB0 1-314): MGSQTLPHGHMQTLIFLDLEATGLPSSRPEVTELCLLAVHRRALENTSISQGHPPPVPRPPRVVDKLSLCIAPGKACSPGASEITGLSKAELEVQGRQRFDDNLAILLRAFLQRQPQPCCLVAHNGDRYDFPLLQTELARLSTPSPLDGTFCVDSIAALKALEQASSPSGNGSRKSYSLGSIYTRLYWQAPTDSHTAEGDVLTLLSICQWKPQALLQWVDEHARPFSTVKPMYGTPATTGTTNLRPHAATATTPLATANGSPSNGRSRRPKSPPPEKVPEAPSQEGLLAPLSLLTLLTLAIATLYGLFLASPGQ
Put plainly: mTREX1 Biochemical Assay (fluorescence, dsDNA substrate degradation). Particulars: biochemical, read-out: mTREX1 IC50. In a few lines: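 Reaction run 18 h at 25° C. with 60 nM TEX615/quencher-labelled dsDNA and 6 pM mouse TREX1 in Tris buffer (pH 7.4, 5 mM MgCl2, 1.0% DMSO), enzyme having sat 4 h with compound across 10 concentrations. EDTA quench; substrate degradation measured as fluorescence increase.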

Assay [1] concerns the target T2, human TREX2 (residues M44-A279) (Homo sapiens, UniProt Q9BQ50).
T2 construct: human TREX2 (residues M44-A279, expressed in E. coli); made in house; host or cells: E. coli
T2 sequence (Q9BQ50 44-279 isoform Q9BQ50-1): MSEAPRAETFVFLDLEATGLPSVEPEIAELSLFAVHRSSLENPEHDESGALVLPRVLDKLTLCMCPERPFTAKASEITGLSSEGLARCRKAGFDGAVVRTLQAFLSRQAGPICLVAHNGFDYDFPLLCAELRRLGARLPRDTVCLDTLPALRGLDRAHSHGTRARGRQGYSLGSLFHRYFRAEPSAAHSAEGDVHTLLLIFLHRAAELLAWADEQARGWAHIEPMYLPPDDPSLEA
Put plainly: hTREX2 Biochemical Assay (fluorescence, dsDNA substrate degradation). Particulars: biochemical selectivity for hTREX1 vs hTREX2. The gist of the method: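 N-His-Tev E. coli enzyme (50 pM) pre-incubated with compound 4 h at 25 °C, then 60 nM TEX615/quencher dsDNA added; 18 h at 25 °C, pH 7.4 Tris buffer with 5 mM MgCl2, 1.0% DMSO. EDTA-quenched; fluorescence 570 ex/615 em from liberated fluorophore, 10-point dose-response.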

Another assay addresses T3, full length human TREX1 (Homo sapiens, UniProt Q9NSU2).
T3 construct: N-terminally His-Tev tagged full length human TREX1; made in house; host or cells: E. coli
T3 sequence (Q9NSU2 1-314): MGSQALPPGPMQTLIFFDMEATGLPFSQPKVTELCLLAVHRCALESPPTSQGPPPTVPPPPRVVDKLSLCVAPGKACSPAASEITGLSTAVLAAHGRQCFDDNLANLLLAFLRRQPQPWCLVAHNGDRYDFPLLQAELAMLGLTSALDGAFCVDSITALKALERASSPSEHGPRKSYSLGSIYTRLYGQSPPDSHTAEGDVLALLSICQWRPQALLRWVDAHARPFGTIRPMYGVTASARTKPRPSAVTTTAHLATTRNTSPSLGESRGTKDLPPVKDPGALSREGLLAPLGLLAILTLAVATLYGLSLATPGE
Put plainly: hTREX1 Biochemical Assay (fluorescence, dsDNA substrate degradation). Particulars: biochemical, read-out: hTREX1 IC50. The gist of the method: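 Cleavage of 60 nM TEX615/quencher-labelled dsDNA in pH 7.4 Tris buffer with 5 mM MgCl2, 1.0% DMSO, run 18 hours at 25° C, EDTA-quenched; fluorescence read-out.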

The structures appear in SMILES notation.

The text below walks through data of patent US20240246946A1, “MODULATORS OF TREX1” (Constellation Pharmaceuticals, Inc., priority 2021, published 2024).

The term IC50 denotes the concentration at which inhibition is half-maximal. Regarding `CC(c1nc(C(=O)Nc2cnoc2)c(O)c(=O)n1C)C(c1cnc(C(F)(F)F)cn1)c1ccccc1C#N` (single isomer, unassigned) [Example 118 D1E2], the IC50 on full length mouse TREX1 and on full length human TREX1 was above 10 nM throughout. Besides, the “hTREX1 vs hTREX2 selectivity” value in assay [1] is listed as “A (A = <25 fold selective for hTREX1)”.

For the compound `COCCn1ncc(C(c2cc(F)ccc2C#N)C(C)c2nc(C(=O)Nc3cnoc3)c(O)c(=O)n2C)c1C` (single isomer, unassigned) [Example 104 D2E2], the IC50 was above 10 nM on full length mouse TREX1 and 1 to 10 nM at full length human TREX1. Also, the “hTREX1 vs hTREX2 selectivity” value in assay [1] is reported as “B (B = 25 to 50-fold selective for hTREX1)”.

Regarding `CCn1cc(C(c2ccc(F)cc2C#N)C(C)c2nc(C(=O)Nc3cnoc3)c(O)c(=O)n2C)c(C)n1` (single isomer, unassigned) [Example 55 D1E1], the IC50 at full length mouse TREX1 and on full length human TREX1 was below 1 nM throughout. For the same compound, the “hTREX1 vs hTREX2 selectivity” value in assay [1] is reported as “C (C = >50 fold selective for hTREX1)”.

Regarding `CCn1cc(C(c2ccccc2C#N)C(C)c2nc(C(=O)Nc3cnoc3)c(O)c(=O)n2C)cn1` (single isomer, unassigned) [Example 13 D1E2], the IC50 at full length mouse TREX1 and on full length human TREX1 was above 10 nM throughout. Also, in assay [1], the “hTREX1 vs hTREX2 selectivity” value is reported as “B (B = 25 to 50-fold selective for hTREX1)”.

Turning to `COCCn1ncc(C(c2cc(F)ccc2Cl)C(C)c2nc(C(=O)Nc3cnoc3)c(O)c(=O)n2C)c1C` (single isomer, unassigned) [Example 108 D2E2], the half-maximal inhibitory concentration (IC50) at full length mouse TREX1 and on full length human TREX1 was above 10 nM in each case. Further, in assay [1], the “hTREX1 vs hTREX2 selectivity” value is on record as “A (A = <25 fold selective for hTREX1)”.

For the compound `Cc1n[nH]c(C)c1C(c1ccccc1C#N)C(C)c1nc(C(=O)Nc2cnoc2)c(O)c(=O)n1C` (single isomer, unassigned) [Example 95 D2E2], the IC50 at full length mouse TREX1 and at full length human TREX1 was above 10 nM throughout. The “hTREX1 vs hTREX2 selectivity” value in assay [1] is “A (A = <25 fold selective for hTREX1)”.

On to `CC(c1nc(C(=O)Nc2cnoc2)c(O)c(=O)n1C)C(c1cnn(CC2COC2)c1)c1ccccc1Cl` (single isomer, unassigned) [Example 88 D1E2], for which the IC50 on full length mouse TREX1 was above 10 nM; on full length human TREX1 it was 1 to 10 nM. Further, the “hTREX1 vs hTREX2 selectivity” value in assay [1] is recorded as “A (A = <25 fold selective for hTREX1)”.

For the compound `CC(c1nc(C(=O)Nc2cnoc2)c(O)c(=O)n1C)C(c1cnn(CCOC(F)(F)F)c1)c1cc(F)ccc1Cl` (single isomer, unassigned) [Example 98 D1E2], the figures for the IC50 at full length mouse TREX1 and on full length human TREX1 were 1 to 10 nM and above 10 nM, respectively. Besides, the “hTREX1 vs hTREX2 selectivity” value in assay [1] was “A (A = <25 fold selective for hTREX1)”.

Turning to `CC(c1nc(C(=O)Nc2cnoc2)c(O)c(=O)n1C)C(c1cn(C)cn1)c1ccccc1C#N` (single isomer, unassigned) [Example 39 D2E2], the IC50 was above 10 nM on full length mouse TREX1 and 1 to 10 nM on full length human TREX1. In assay [1], the “hTREX1 vs hTREX2 selectivity” value is recorded as “C (C = >50 fold selective for hTREX1)”.

On to `Cc1cc(C(c2ccccc2C#N)C(C)c2nc(C(=O)Nc3cnoc3)c(O)c(=O)n2C)n(C)n1` (single isomer, unassigned) [Example 63 D1E2], for which the half-maximal inhibitory concentration (IC50) is above 10 nM on full length mouse TREX1 and 1 to 10 nM on full length human TREX1. The “hTREX1 vs hTREX2 selectivity” value in assay [1] is “C (C = >50 fold selective for hTREX1)”.

In the case of `CC(c1nc(C(=O)Nc2cnoc2)c(O)c(=O)n1C)C(c1cnn(C2COC2)c1)c1ccccc1C#N` (single isomer, unassigned) [Example 106 D2E1], the IC50 on full length mouse TREX1 and at full length human TREX1 was above 10 nM throughout. In assay [1], the “hTREX1 vs hTREX2 selectivity” value is recorded as “B (B = 25 to 50-fold selective for hTREX1)”.

Take `Cc1nccc(C(c2ccccc2C#N)C(C)c2nc(C(=O)Nc3cnoc3)c(O)c(=O)n2C)n1` (single isomer, unassigned) [Example 83 D1E2]: the IC50 at full length mouse TREX1 and at full length human TREX1 was above 10 nM each time. In assay [1], the “hTREX1 vs hTREX2 selectivity” value is “A (A = <25 fold selective for hTREX1)”.

For the compound `Cc1cc(C)n(C(c2ccccc2Cl)C(C)c2nc(C(=O)Nc3cnoc3)c(O)c(=O)n2C)n1` (single isomer, unassigned) [Example 136 D1E1], the IC50 on full length mouse TREX1 and at full length human TREX1 was above 10 nM in each case. Further, the “hTREX1 vs hTREX2 selectivity” value in assay [1] is on record as “A (A = <25 fold selective for hTREX1)”.

For the compound `COCCn1ncc(C(c2cc(F)ccc2C#N)C(C)c2nc(C(=O)Nc3cnoc3)c(O)c(=O)n2C)c1C` (single isomer, unassigned) [Example 104 D2E1], the IC50 on full length mouse TREX1 and on full length human TREX1 was above 10 nM throughout. Moreover, in assay [1], the “hTREX1 vs hTREX2 selectivity” value is reported as “A (A = <25 fold selective for hTREX1)”.

As to `Cc1cc(C(c2cc(F)ccc2Cl)C(C)c2nc(C(=O)Nc3cnoc3)c(O)c(=O)n2C)n(C)n1` (single isomer, unassigned) [Example 113 D1E2], the IC50 at full length mouse TREX1 and at full length human TREX1 was above 10 nM in each case. Moreover, in assay [1], the “hTREX1 vs hTREX2 selectivity” value is reported as “A (A = <25 fold selective for hTREX1)”.

`CCn1cc(C(c2ccc(F)cc2C#N)C(C)c2nc(C(=O)Nc3cnoc3)c(O)c(=O)n2C)c(C)n1` (single isomer, unassigned) [Example 55 D2E2]: the IC50 is above 10 nM at full length mouse TREX1 and 1 to 10 nM on full length human TREX1. The “hTREX1 vs hTREX2 selectivity” value in assay [1] is reported as “C (C = >50 fold selective for hTREX1)”.

In the case of `CC(c1nc(C(=O)Nc2cnoc2)c(O)c(=O)n1C)C(c1nnn(C)n1)c1ccccc1C#N` (single isomer, unassigned) [Example 79 D2E1], the IC50 on full length mouse TREX1 is above 10 nM; at full length human TREX1 it was 1 to 10 nM. In addition, the “hTREX1 vs hTREX2 selectivity” value in assay [1] is given as “A (A = <25 fold selective for hTREX1)”.

As to `Cc1cnc(C(c2cc(F)ccc2C#N)C(C)c2nc(C(=O)Nc3cnoc3)c(O)c(=O)n2C)cn1` (single isomer, unassigned) [Example 115 D1E1], the IC50 at full length mouse TREX1 and on full length human TREX1 was above 10 nM each time. Also, the “hTREX1 vs hTREX2 selectivity” value in assay [1] was “A (A = <25 fold selective for hTREX1)”.

For the compound `Cc1cnc(C)c(C(c2cc(F)ccc2Cl)C(C)c2nc(C(=O)Nc3cnoc3)c(O)c(=O)n2C)n1` (single isomer, unassigned) [Example 121 D1E2], the IC50 on full length mouse TREX1 and on full length human TREX1 was above 10 nM in each case. In assay [1], the “hTREX1 vs hTREX2 selectivity” value is “A (A = <25 fold selective for hTREX1)”.

Consider `CC(c1nc(C(=O)Nc2cnoc2)c(O)c(=O)n1C)C(c1cnn(CCCN(C)C)c1)c1ccccc1C#N` (single isomer, unassigned) [Example 34 D2E1], for which the IC50 at full length mouse TREX1 and on full length human TREX1 was above 10 nM each time. Also, the “hTREX1 vs hTREX2 selectivity” value in assay [1] is listed as “C (C = >50 fold selective for hTREX1)”.

For `CC(c1nc(C(=O)Nc2cnoc2)c(O)c(=O)n1C)C(c1cnn(C)c1)c1ccc(Cl)cc1C#N` (single isomer, unassigned) [Example 27 D1E2], the IC50 on full length mouse TREX1 and at full length human TREX1 was above 10 nM each time. In assay [1], the “hTREX1 vs hTREX2 selectivity” value is recorded as “C (C = >50 fold selective for hTREX1)”.

As for `CC(c1nc(C(=O)Nc2cnoc2)c(O)c(=O)n1C)C(c1cnn(C(C)C)c1)c1ccccc1C#N` (single isomer, unassigned) [Example 105 D1E1], the IC50 at full length mouse TREX1 and at full length human TREX1 was above 10 nM throughout. For the same compound, the “hTREX1 vs hTREX2 selectivity” value in assay [1] is on record as “A (A = <25 fold selective for hTREX1)”.

With `CCc1cnn(C(c2ccccc2Cl)C(C)c2nc(C(=O)Nc3cnoc3)c(O)c(=O)n2C)c1` (single isomer, unassigned) [Example 134 D1E2], the IC50 on full length mouse TREX1 and at full length human TREX1 was above 10 nM each time. For the same compound, the “hTREX1 vs hTREX2 selectivity” value in assay [1] is listed as “A (A = <25 fold selective for hTREX1)”.
